Measurements published in patent publication US7576064B2, “Pyrazole derivative, drug composition containing the same and production intermediate therefor” (Kissei Pharmaceutical Co., Ltd., priority 2003, dated 2009).
pIC50: −log10 of the molar value.

What was measured:
[1] = target: T1, human SMINT (Homo sapiens, UniProt Q2M3M2); experiment: Confirmatory test for inhibitory activity on human SMINT (methyl-α-D-glucopyranoside uptake in transiently expressing COS-7 cells); type: cell-based; settings: COS-7 cells transiently expressing human SMINT; 1 mM α-MG; 1 hour, 37° C.; read-out: IC50 value (concentration inhibiting α-MG uptake by 50%)
T1 construct: expressed in transfected cells; host or cells: COS-7 cells (RIKEN CELL BANK RCB0539), transient lipofection
T1 sequence (Q2M3M2 1-681): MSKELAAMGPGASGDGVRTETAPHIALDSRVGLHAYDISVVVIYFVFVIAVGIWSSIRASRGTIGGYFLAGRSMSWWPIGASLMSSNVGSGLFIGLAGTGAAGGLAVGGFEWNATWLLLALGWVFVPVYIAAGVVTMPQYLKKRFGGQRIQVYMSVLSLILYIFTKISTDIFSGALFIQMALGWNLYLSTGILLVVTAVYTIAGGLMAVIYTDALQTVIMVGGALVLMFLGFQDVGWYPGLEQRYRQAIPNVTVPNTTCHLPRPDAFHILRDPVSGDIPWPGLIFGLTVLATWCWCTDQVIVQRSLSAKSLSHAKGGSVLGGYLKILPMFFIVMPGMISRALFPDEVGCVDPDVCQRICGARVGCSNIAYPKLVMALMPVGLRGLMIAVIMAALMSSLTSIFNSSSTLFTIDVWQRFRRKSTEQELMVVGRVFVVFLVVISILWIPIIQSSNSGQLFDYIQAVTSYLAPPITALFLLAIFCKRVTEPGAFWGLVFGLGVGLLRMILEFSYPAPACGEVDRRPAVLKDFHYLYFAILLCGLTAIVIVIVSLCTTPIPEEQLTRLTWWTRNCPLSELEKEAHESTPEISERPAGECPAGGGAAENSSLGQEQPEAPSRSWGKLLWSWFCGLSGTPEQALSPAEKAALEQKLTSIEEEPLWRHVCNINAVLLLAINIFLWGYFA
Source text: (§1) Human SMINT-carrying expression plasmid SMINT/pME18S-FL (denotation of bacteria: Escherichia coli/SMINT2010324), which was deposited with Patent Microorganisms Depositary at the National Institute of Technology and Evaluation under an accession number: FERMP-18756 on Mar. 12, 2002, was transfected to COS-7 cells (RIKEN CELL BANK RCB0539) by lipofection method. LIPOFECTAMINE PLUS reagent (Invitrogen) was used as the lipofection reagent. A day before the lipofection, COS-7 cells were suspended in D-MEM medium (Invitrogen) at 6×10^5 cells per 1 mL, and 50 μL of the suspended cells was dispensed into each well of 96-well plate. The lipofection was performed by the following methods. For each well, 0.1 μg of the plasmid was diluted with 10 μL of D-MEM, added 0.5 μL of PLUS reagent, mixed gently, and kept stand for 15 minutes to prepare Plasmid Dilute Solution. For each well, 0.5 μL of LIPOFECTAMINE reagent was diluted with 10 μL of D-MEM to prepare LIPOFECTAMINE Dilute Solution. The Plasmid Dilute Solution was mixed with an equal volume of the LIPOFECTAMINE Dilute Solution, kept stand for 15 minutes. After that, 20 μL of the mixture was added to each well of cell culture medium, and the cells were cultured for 5 hours at 37° C. under 5% CO2. Then 100 μL of D-MEM containing 16.7% fetal bovine serum (Sanko Jun-yaku) was added to each well. […]

[2] = target: T1, human SMINT; experiment: Confirmatory test for substrate specificity of human SMINT (inhibition of α-MG uptake by natural sugars); type: cell-based; settings: natural sugars added to Uptake Buffer with 1 mM α-MG; COS-7 cells transiently expressing human SMINT
Source text: FIG. 2 is a graph showing substrate specificity of human SMINT. The vertical axis in dicates methyl-α-D-glucopyranoside (α-MG) uptake activity (%), and the horizontal axis indicates concentration (mol/L).
1) Preparation of Cells Transiently Expressing Human SMINT
as §1, with “Solution.” for “Solution. The Plasmid Dilute Solution was mixed with an equal volume of the LIPOFECTAMINE Dilute Solution, kept stand for 15 minutes. After that, 20 μL of the mixture was added to each well of cell culture medium, and the cells were cultured for 5 hours at 37° C. under 5% CO2. Then 100 μL of D-MEM containing 16.7% fetal bovine serum (Sanko Jun-yaku) was added to each well.”
To Uptake Buffer consisting of 140 mM sodium chloride, 2 mM potassium chloride, 1 mM calcium chloride, 1 mM magnesium chloride, 10 mM 2-[2-(2-hydroxyethyl)-1-piperazinyl]-ethanesulfonic acid, and 5 mM tris(hydroxymethyl)aminomethane (pH 7.4), was added methyl-α-D-glucopyranoside (α-MG) composed of its non-radiolabeled form (Sigma) and ^14C-labeled form (Amersham Biosciences) at 1 mM as the final concentration. […] To the cell lysates were added 150 μL per well of MicroScint 40 (Packard), mixed well, and the radio activity was measured in a micro scintillation counter TOPCOUNT (Packard). α-MG uptake by the cells treated with each concentration of test compounds was calculated as relative activity to control group, which is set as 100% uptake after deducting the basal uptake. […]

Row | SMILES | pIC50 [1] | recognition as substrate by SMINT (FIG. 2) [2]
1 | O=C(CO)[C@@H](O)[C@H](O)[C@H](O)CO [fructose] |  | recognizes
2 | O=C[C@H](O)[C@@H](O)[C@@H](O)[C@H](O)CO [galactose] |  | not
3 | OC[C@H]1OC[C@H](O)[C@@H](O)[C@@H]1O [1,5-anhydroglucitol] |  | recognizes

Now from value to compound:

Row | pIC50 [1] | recognition as substrate by SMINT (FIG. 2) [2] | SMILES
4 | 6.15 |  | COc1ccc(Cc2c(O[C@@H]3O[C@H](CO)[C@@H](O)[C@H](O)[C@H]3O)nn(C(C)C)c2Oc2ccccc2)cc1 [Example 1, 1-Isopropyl-4-(4-methoxybenzyl)-5-phenoxy-3-(β-D-glucopyranosyloxy)-1H-pyrazole]
5 | 6.05 |  | COc1ccc(Cc2c(O[C@@H]3O[C@H](CO)[C@@H](O)[C@H](O)[C@H]3O)nn(C(C)C)c2-n2cccn2)c(OC)c1 [Example 4, 1-Isopropyl-4-(2,4-dimethoxyphenylmethyl)-5-(1H-pyrazol-1-yl)-3-(β-D-glucopyranosyloxy)-1H-pyrazole]
